Three compounds from patent US20110159504A1, “METHYLATION MARKERS FOR SENSITIVITY TO MICROTUBE BASED THERAPIES AND METHODS OF USE” (THE JOHNS HOPKINS UNIVERSITY, priority 2008, published 2011) can be followed below.

Test [1] has as its system advanced localized esophageal cancer. Kind of test: Response (pCR) and overall survival of esophageal cancer patients after neoadjuvant chemoradiotherapy and surgery, by CHFR methylation status. It is filed as in vivo, human. The settings on record: for Overall survival when CHFR methylation present vs. absent: paclitaxel n=31, docetaxel n=18, Kaplan-Meier; for Overall survival, docetaxel vs. paclitaxel: taxane-based therapy, N=49. On the procedure: Endoscopic tumor biopsy specimens were studied from 81 patients with advanced localized esophageal cancer scheduled to undergo neoadjuvant chemoradiotherapy and surgery at the Johns Hopkins Hospital (JHH) between January 1995 and January 2007. Forty-nine patients were treated with taxane based combination chemoradiotherapy. Pretreatment esophageal tumor tissue from endoscsopic biopsy was initially available from JHH for twenty-one patients treated with taxanes. After an analysis of these initial 21 patients, IRB permission was obtained to request further biopsy specimens from referring endoscopy centers for patients subsequently treated at Johns Hopkins Hospital. This allowed analysis of pretreatment endoscopic tumor biopsies from an additional 28 patients treated with taxanes and 32 patients treated with non-taxane regimens. […] Of the forty-nine taxane-treated patients, thirty-one received paclitaxel containing combinations, while eighteen received a docetaxel-based combination shown in the Table below.
Response to preoperative chemoradiotherapy was based on pathology of the resected esophagus and nodal tissue specimen and classified as either pathologic complete response (pCR) or non-pCR, where pCR is the complete absence of intact tumor cells in surgical pathology specimens. We verified histological results and deaths during follow-up by re-examining original hospital records. This study was approved by the Johns Hopkins Institutional Review Board.
Methylation of CHFR was determined by detecting analyte (CHFR and ACTS) with real-time MSP using molecular beacons. These consisted of parallel amplification/quantification using specific primer and detector pairs for each analyte using the iCycler (BioRad Laboratories, Hercules, Calif.). […] Duplicate PCR amplifications were analyzed using iQuant 3.0 software (BioRad), exported as Ct values, and used to calculate copy numbers based on a linear regression of values plotted on a standard curve of 20-2×10^6 gene copy equivalents of plasmid DNA containing bisulfite modified CHFR. CHFR copy numbers were divided by ACTB copy numbers for each sample to normalize for DNA quality and quantity, multiplied by 100 for convenience to determine the ratio-value. […]
Based upon findings from the initial 21 patients treated with taxanes and 40% methylation prevalence, the study size necessary to detect a hazard ratio of death of 3.00 for unmethylated CHFR was estimated. […] The primary endpoint was time to death or censor measured from the origin date of pretreatment endoscopic biopsy. […] Associations between clinical response and CHFR methylation were assessed using logistic regression. […] Statistical comparisons and survival between groups were analyzed using the log-rank test. […]

The test system of test [2] is CHFR expression in esophageal cancer cell lines. As to the kind of experiment: CHFR expression by RT-PCR in esophageal cancer cell lines after treatment with demethylating agent. The test is classed as cell-based. The following applies: for Expression of CHFR (RNA level, RT-PCR) in CHFR-methylated cell lines: KYSE150 and KYSE510, no expression at baseline, 72 hour treatment. The source says: A) Methylation-specific PCR (MSP) of the CHFR promoter region was examined in esophageal cancer cell lines. […] B) Expression of CHFR as determined by RT-PCR. […] C) Position of MSP primers and molecular beacon in the promoter region of the CHFR gene. A previously described gel-based MSP assay for detection of CHFR methylation in colorectal cancer was used 20.

Entries after “also recorded” stand apart in the source; their conditions may differ.

`CC(=O)O[C@@]12CO[C@@H]1C[C@H](O)[C@@]1(C)C(=O)[C@H](O)C3=C(C)[C@@H](OC(=O)[C@H](O)[C@@H](NC(=O)OC(C)(C)C)c4ccccc4)C[C@@](O)([C@@H](OC(=O)c4ccccc4)[C@H]21)C3(C)C` [docetaxel]: in test [1], the “Overall survival when CHFR methylation present vs. absent” value was “survival advantage; also recorded: improvement in survival” and the “Overall survival, docetaxel vs. paclitaxel” value was “no difference”.
Consider `Nc1ncn([C@H]2C[C@H](O)[C@@H](CO)O2)c(=O)n1` [5-aza-2′-deoxycytidine], for which the “Expression of CHFR (RNA level, RT-PCR) in CHFR-methylated cell lines” value is reported as “re-express the gene at the RNA level” in test [2] and “reversed” in test [2] (listed as 5-aza-2′ deoxycytidine). The “Expression of CHFR (RT-PCR) in unmethylated cell lines” value in test [2] (all other (unmethylated) esophageal cancer cell lines, express CHFR at baseline) is reported as “not affected”.
In the case of `CC(=O)O[C@H]1C(=O)[C@@]2(C)[C@H]([C@H](OC(=O)c3ccccc3)[C@]3(O)C[C@H](OC(=O)[C@H](O)[C@@H](NC(=O)c4ccccc4)c4ccccc4)C(C)=C1C3(C)C)[C@]1(OC(C)=O)CO[C@@H]1C[C@@H]2O` [paclitaxel], in test [1], the “Overall survival when CHFR methylation present vs. absent” value is recorded as “survival advantage; also recorded: significantly greater” and the “Overall survival, docetaxel vs. paclitaxel” value is listed as “no difference”.
